Laboratory results: patent US20250197425A1, “2,6,9-TRISUBSTITUTED PURINES” (ASTRAZENECA AB, priority 2022, published 2025)
Like-named read-outs stand apart in the source and are kept apart here.

Assays:
[1] = test system: POLR2A Ser2 phosphorylation (CDK9); assay: POLR2A Ser2 phosphorylation imaging assay in MCF-7 cells; assay type: cell-based; conditions: Homo sapiens, MCF7, 2 h, read-out: POLR2A Ser2 phosphorylation IC50
Procedure, shortened: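 MCF-7 cells were fixed, permeabilised and immunostained for POLR2A phospho-Ser2, then imaged by high-content microscopy. Levels were normalised to controls and IC50 values derived.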

MCF-7 cells = assay: Cellular proliferation EdU assay, MCF-7; assay type: cell-based; conditions: Homo sapiens, MCF7, 48 h, EdU assay, two days; read-out: MCF-7 IC50
Procedure, shortened: (§1)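 MCF-7 (800 cells/well) and OVCAR3 (1200 cells/well) in RPMI with 10% FBS exposed to compounds for two days at 37 °C.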

OVCAR3 cells [2] = assay: Cellular proliferation EdU assay, OVCAR3; assay type: cell-based, human; conditions: Homo sapiens, OVCAR-3, 48 h, EdU assay, two days; read-out: OVCAR3 IC50
Procedure, shortened: as §1

OVCAR3 cells [3] = assay: Cell proliferation CyQUANT assay, OVCAR3; assay type: cell-based; conditions: Homo sapiens, OVCAR-3, 168 h; CyQUANT cell counts, 7 days
Protocol: (§2) An imaging-based assay was used to investigate changes in cell number in OVCAR3 cells (CCNE1-amplified ovarian cancer cell line) and SKOV3 cells (non-amplified ovarian cancer cell line) treated with test compounds.
(§3) Cells were plated in 384 well plates (Perkin-Elmer 6057300) in RPMI-1640/10% FBS/1× L-Glu at 500 cells per well in 30 μL and incubated with test compound at 37° C. and 5% CO2 for 7 days. Cells were then stained using the CyQuant Direct Cell Proliferation Assay Kit (Thermo Cat #C7026) in accordance with the kit protocol. The stained cells were imaged using an Operetta high content imager to generate cell counts and IC50 values were calculated relative to DMSO controls.

SKOV3 cells = assay: Cell proliferation CyQUANT assay, SKOV3; assay type: cell-based; conditions: Homo sapiens, SK-OV-3, 168 h; CyQUANT cell counts, 7 days
Protocol: as §2, §3

[4] = test system: OVCAR3 human ovarian cancer xenograft; assay: Anti-tumor effect in CCNE1 amplified ovarian xenograft model OVCAR3; assay type: in vivo, mice; conditions: for % INHIBITION: 28 days
Protocol: 15 Million OVCAR3 human ovarian cells were implanted subcutaneously in the right flank of female CB17 SCID mice. Mice were randomized into groups of 8 when average tumor volume reached approximately 160 mm^3. […] Palbociclib was dosed orally once daily.

OVCAR3 cells [5] = assay: Effect on cell cycle in OVCAR3 cell line (flow cytometry); assay type: cell-based, human; conditions: 20 to 24 hours, 0.03, 0.1, 0.3, 1, and 3 μM
Protocol: Compounds were tested in the CCNE1-amplified ovarian cell line OVCAR3 to assess their effect on cell cycle phases G1 and S and potential off-target effects on cell cycle phases G2 and M.
OVCAR3 cells were seeded at 60,000 cells per well in 24 well plates, 4 wells per sample, in RPMI with 10% Fetal bovine serum. Test compounds were diluted in 96 well plates in dimethyl sulfoxide (DMSO) and then added to the wells containing the cells. The 24 well plates were placed in an incubator maintained at 37° C. and 5% CO2 and incubated for 20 to 24 hours. The next day an EdU assay was performed following the manufacturer's protocol (Thermo Fisher, C10425 EdU Alexa Fluor 488). Antibody staining was carried out using PE Mouse Anti-Cleaved PARP (BD Biosciences Catalog No. 552933) and 4′,6-diamidino-2-phenylindole (DAPI). Cells were then analyzed by flow cytometry.

[6] = target: 379 non-CDK kinase (or non-CDK kinase-complex) targets; assay: Kinase profiling (SelectScreen, ThermoFisher); assay type: biochemical; conditions: compared with Compound 6
Excerpt: Test compounds were profiled against a broad panel of kinases at ThermoFisher Scientific using the SelectScreen Kinase Profiling Services. Each kinase assay used one of the following assay technology protocols: • 1) Z-LYTE™ Screening Protocol and Assay Conditions (Revised 23 Jan. 2018 version) available at http://assets.thermofisher.com/TFS-Assets/BID/Methods-&-Protocols/20180123_SSBK_Customer_Protocol_and_Assay_Conditions.pdf; • 2) Adapta™ Screening Protocol and Assay Conditions (Revised 23 Jan. 2018 version) available at http://assets.thermofisher.com/TFS-Assets/BID/Methods-&-Protocols/20180123_SSBK_Adapta_Customer_Protocol_and_Assay_Conditions.pdf; or • 3) LanthaScreen™ Eu Kinase Binding Assay Screening Protocol and Assay Conditions (Revised 23 Jan. 2018 version) available at http://assets.thermofisher.com/TFS-Assets/BID/Methods-&-Protocols/20180123_SSBK_LanthaScreen_Binding_Customer_Protocol_and_Assay_Co nditions.pdf.

[7] = test system: CTG-3298 human CDK4/6 resistant ER+ breast cancer xenograft; assay: Anti-tumor effect in CTG-3298 CDK4/6 resistant ER+ breast cancer xenograft model; assay type: in vivo, mice; conditions: for % INHIBITION (end of dosing): 28 days
Protocol: CTG-3298 ER+ breast xenograft tumors were harvested from donor mice and cut into fragments approximately 50 mm^3 in volume and then reimplanted adjacent to the #3 mammary fat pad.
CTG-3298 ER+ Breast PDX fragments were implanted orthotopically adjacent to the #3 mammary fat pad using a 10-gauge trocar in female NSG mice. […] Palbociclib was dosed orally once daily.

[8] = test system: CTG-3283 human CDK4/6 resistant ER+ breast cancer xenograft; assay: Anti-tumor effect in CTG-3283 CDK4/6 resistant ER+ breast cancer xenograft model; assay type: in vivo, mice; conditions: for % INHIBITION (end of dosing): 28 days
Protocol: CTG-3283 ER+ breast xenograft tumors were harvested from donor mice and cut into fragments approximately 50 mm^3 in volume and then reimplanted adjacent to the #3 mammary fat pad.
CTG-3283 ER+ Breast PDX fragments were implanted orthotopically adjacent to the #3 mammary fat pad using a 10-gauge trocar in female NSG mice. […] Palbociclib was dosed orally once daily.

OVCAR3 cells [9] = assay: Senescence β-galactosidase assay, OVCAR3; assay type: cell-based, human; conditions: 5 days, single agent
Protocol: Cells were then stained with a fluorescent dye to detect senescence-associated β-galactosidase (CellEvent Senescence Green detection kit, Thermo #C10850), diluted 1:1000 in the provided buffer, and incubated at 37° C. for 2 hours without CO2 in accordance with the manufacturer's instructions. DNA staining was performed using Hoechst 33342, diluted 1:2500 in PBS, for 15 minutes at room temperature, followed by two washes with PBS. Sample imaging was performed on a PerkinElmer Operetta CLS at lOX magnification to detect Hoechst 33342 (nuclei) and Alexa488 (senescence stain). Image analysis was performed in Harmony 4.1 software (PerkinElmer) to identify cells based on nuclear staining. Mean Alexa488 fluorescence intensity was measured within each cell, and the average was taken across all cells observed within each well. […] Data fitting was performed using Genedata Screener (Genedata AG) and combination effect was assessed using the highest single agent (HSA) model.

[10] = test system: pRB (S780) in OVCAR3 human ovarian cancer xenograft; assay: Pharmacodynamic effect (pRB) in OVCAR3 xenograft model; assay type: in vivo, mice; conditions: 3 days dosing, Western blot
Protocol: 15 Million OVCAR3 human ovarian cells were implanted subcutaneously in the right flank of female CB17 SCID mice. […] Palbociclib was dosed orally once daily.

[11] = test system: pRB (S780) in MCF7-PC1 human palbociclib resistant ER+ breast cancer xenograft; assay: Pharmacodynamic effect (pRB) in MCF7-PC1 palbociclib resistant ER+ breast cancer xenograft model; assay type: in vivo, mice; conditions: 3 days dosing, Western blot
Protocol: MCF7-PC1 cells were generated as described in Example 70.
Palbociclib was dosed orally once daily.

[12] = test system: pRB (S780) in CTG-3298 human CDK4/6 resistant ER+ breast cancer xenograft; assay: Pharmacodynamic effect (pRB) in CTG-3298 xenograft model; conditions: 3 days dosing, Western blot
Protocol: A study was conducted to evaluate the in vivo pharmacodynamic response of monotherapy with a CDK2 inhibitor and combination therapy with a CDK2 inhibitor and palbociclib in a CTG-3298 human CDK4/6 resistant ER+ breast cancer xenograft model.
CTG-3298 fragments were implanted adjacent to the #3 mammory fat pad of female NSG mice. […] Mice were treated for 3 days with vehicle (0.5% HPMC/0.1% Tween 80), palbociclib at 50 mg/kg, test compound at 30 or 60 mg/kg, or the combination of test compound and palbociclib. Test compound was dosed orally twice daily 10 hours apart on day one and two and a single dose in the morning on day 3. Palbociclib was dosed orally once daily. When administered in combination with test compound, palbociclib was dosed 4 hours after the morning dose of test compound on days one and two and 15 minutes after the morning dose of test compound on day 3. The time course of sample collection was as follows: (i) the test compound at 30 mg/kg groups with and without palbociclib treatment were collected at 2, 4 and 8 hours; (ii) all other groups were collected at 2, 8, and 24 hours. pRB (S780) was evaluated by western blotting.

[13] = test system: pRB (S780) in CTG-3283 human CDK4/6 resistant ER+ breast cancer xenograft; assay: Pharmacodynamic effect (pRB) in CTG-3283 xenograft model; conditions: 3 days dosing, Western blot
Protocol: A study was conducted to evaluate the in vivo pharmacodynamic response of monotherapy with a CDK2 inhibitor and combination therapy with a CDK2 inhibitor and palbociclib in a CTG-3283 human CDK4/6 resistant ER+ breast cancer xenograft model.
CTG-3283 fragments were implanted adjacent to the #3 mammory fat pad of female NSG mice. […] Mice were treated for 3 days with vehicle (0.5% HPMC/0.1% Tween 80), palbociclib at 50 mg/kg, test compound at 30 or 60 mg/kg, or the combination of test compound and palbociclib. Test compound was dosed orally twice daily 10 hours apart on day one and two and a single dose in the morning on day 3. Palbociclib was dosed orally once daily. When administered in combination with test compound, palbociclib was dosed 4 hours after the morning dose of test compound on days one and two and 15 minutes after the morning dose of test compound on day 3. The time course of sample collection was as follows: (i) the test compound at 30 mg/kg groups with and without palbociclib treatment were collected at 2, 4, and 8 hours; (ii) all other groups were collected at 2, 8, and 24 hours. pRB (S780) was evaluated by western blotting.

[14] = test system: pHH3 in T47D P1 human palbociclib resistant ER+ breast cancer xenograft; assay: Pharmacodynamic effect in T47D P1 palbociclib resistant ER+ breast xenograft model; conditions: 3 days dosing, Western blot
Protocol: A study was conducted to evaluate the in vivo pharmacodynamic response of monotherapy with a CDK2 inhibitor and combination therapy with a CDK2 inhibitor and palbociclib in a T47D P1 human palbociclib resistant ER+ breast cancer xenograft model.
T47D P1 cells were generated to be resistant to palbociclib through chronic treatment with palbociclib over the course of about three months with increasing concentrations up to 3 μM. The resulting cells (T47D P1) were then banked for use in subsequent experiments. T47D P1 cells were grown in phenol red free RPMI 1640 supplemented with 10% fetal bovine serum and 3 μM palbociclib. Cells were harvested with 0.25% trypsin and resuspended in PBS/phenol red free Matrigel (50/50).
10 Million T47D P1 cells were implanted orthotopically into the #3 mammary fat pad of female NSG mice. 0.5 mg 90 day release 17B-estradiol pellets from Innovative Research of America were implanted subcutaneously three days prior to cell implant. […] The time course of sample collection was as follows: (i) the test compound at 30 mg/kg groups with and without palbociclib treatment were collected at 2, 4 and 8 hours; and (ii) all other groups were collected at 2, 8 and 24 hours. pHH3 was evaluated by western blotting.

[15] = Aqueous thermodynamic solubility, shake-flask; assay type: physicochemical; conditions: aqueous phosphate buffer, 25 °C, pH 7.4, aqueous buffer, thermodynamic from solid, phosphate buffer 0.1 M, pH 7.4, 24 hours
Procedure, shortened: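 After 24 h stirring at 25° C. in pH 7.4 phosphate buffer (0.1 M), solid-free supernatant from two centrifugations was quantified by UPLC/MS/MS after dilution in water. Compound was added as dried material after DMSO removal.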

[16] = test system: 97 targets (GPCRs, ion channels, transporters, enzymes, kinases); assay: Secondary pharmacology panel (Eurofins CEREP); conditions: compared with Compound 6
Protocol: Secondary pharmacology assays were performed at Eurofins CEREP using standard experimental techniques. Specifically, radioligand binding assays were used to assess the ability of test compounds to interact with G-protein coupled receptors (GPCRs), ion channels, and transmembrane transporters. Assays measuring substrate turnover or phosphorylation by isolated proteins were used for enzyme and kinase targets, allowing direct determination of the mode of action of the tested compounds.

[17] = Palbociclib at 50 mg/kg orally once daily
[18] = Compound 6 at 30 mg/kg orally twice daily
[19] = Compound 6 at 60 mg/kg orally twice daily

Row | IC50 (OVCAR3 cells [2]) | IC50 ([1]; MCF-7 cells, 2 hours) | Structure (SMILES) | IC50 [1] | IC50 (MCF-7 cells) | IC50 (OVCAR3 cells [3]) | IC50 (SKOV3 cells) | effect on cell cycle phase (OVCAR3 cells [5]) | kinase inhibition profile [6] | other results
1 |  |  | CC(=O)c1c(C)c2cnc(Nc3ccc(N4CCNCC4)cn3)nc2n(C2CCCC2)c1=O [Palbociclib, reference compound] |  |  |  |  |  |  | % INHIBITION [4, 17]: 9%; % INHIBITION (end of dosing) [7, 17]: 49%; % INHIBITION (end of dosing) [8, 17]: 46%; induction of senescence (OVCAR3 cells [9]): no effect was observed
2 | 242 nM | > 29100 nM | CC[C@H](Nc1nc(N[C@H]2CCN(S(=O)(=O)NC)C2)c2ncn(CC)c2n1)[C@@H](C)O [Example 44, (S)-3-((9-ethyl-2-(((2R,3S)-2-hydroxypentan-3-yl)amino)-9H-purin-6-yl)-amino)-N-methylpyrrolidine-1-sulfonamide] |  | 592 nM | 133 nM | 9150 nM |  | broadly similar kinase inhibition profiles to Compound 6 | 
3 |  |  | CCNS(=O)(=O)N1CC[C@H](Nc2nc(N[C@@H](CC)[C@@H](C)O)nc3c2ncn3CC)C1 [Compound 6, (S)—N-ethyl-3-((9-ethyl-2-(((2R,3S)-2-hydroxypentan-3-yl)amino)-9H-purin-6-yl)amino)pyrrolidine-1-sulfonamide] | > 19300 nM | 278 nM | 77 nM | 1960 nM | increased the population of cells in the G0 and G1 phases |  | % INHIBITION [4, 18]: 31%; % INHIBITION ([4]; Compound 6 at 100 mg/kg orally twice daily): 94%; % INHIBITION ([4]; Compound 6 at 150 mg/kg orally twice daily): >100%; durability on monitoring for regrowth ([4]; Compound 6 at 150 mg/kg, compared to Compound 6 at 100 mg/kg group): showed increased durability; % INHIBITION (end of dosing) [7, 18]: 82%; % INHIBITION (end of dosing) [7, 19]: 87%; durability of response ([7]; Compound 6 at 60 mg/kg without palbociclib): more durable response; tumor growth inhibition ([8]; CTG-3283 xenograft, Compound 6 at 30 and 60 mg/kg monotherapy or combination with palbociclib): lower inhibition of tumor growth; % INHIBITION (end of dosing) [8, 18]: 28%; % INHIBITION (end of dosing) [8, 19]: 21%; pRB levels [10]: time dependent inhibition of pRB; pRB levels [11]: time dependent inhibition of pRB; pRB levels [12]: dose dependent inhibition of pRB; pRB levels [13]: dose dependent inhibition of pRB; pHH3 levels [14]: time dependent inhibition of pHH3
4 | 441 nM | > 30000 nM | CC[C@H](Nc1nc(N[C@H]2CCN(S(=O)(=O)c3ccn[nH]3)C2)c2ncn(CC)c2n1)[C@@H](C)O [Example 62, (2R,3S)-3-((6-(((S)-1-((1H-pyrazol-5-yl)sulfonyl)pyrrolidin-3-yl)amino)-9-ethyl-9H-purin-2-yl)amino)pentan-2-ol] |  | 1400 nM |  |  |  | broadly similar kinase inhibition profiles to Compound 6 | solubility at 24 h [15]: > 1000 µM; secondary pharmacology profile [16]: broadly similar secondary pharmacology to Compound 6

Row | Structure (SMILES) | IC50 (OVCAR3 cells [2]) | IC50 ([1]; MCF-7 cells, 2 hours) | IC50 [1] | IC50 (MCF-7 cells) | IC50 (OVCAR3 cells [3]) | IC50 (SKOV3 cells) | effect on cell cycle phase (OVCAR3 cells [5]) | kinase inhibition profile [6] | other results
5 | CC(C)[C@H](CO)Nc1nc(N[C@H]2CCN(S(C)(=O)=O)C2)c2ncn(C(C)C)c2n1 [Compound 20, (R)-2-((9-isopropyl-6-(((S)-1-(methylsulfonyl)pyrrolidin-3-yl)amino)-9H-purin-2-yl)amino)-3-methylbutan-1-ol] | 224 nM |  | > 30000 nM | 665 nM | 188 nM | 2520 nM | increased the population of cells in the G0 and G1 phases | broadly similar kinase inhibition profiles to Compound 6 | activity and tolerability in xenograft model ([4]; OVCAR3 xenograft): active and well tolerated
